Source: patent publication US20220192984A1, “PHARMACEUTICAL COMPOSITIONS COMPRISING OTIC THERAPEUTIC AGENTS AND RELATED METHODS” (Frequency Therapeutics, Inc., priority 2018, published 2022)
Where a name gives a salt, the structure may show the parent alone. Read-outs that look alike come from different tables or passages of the source.

Tests used:
DOT1L [1] = target: T1, DOT1L (Homo sapiens, UniProt Q8TEK3); conditions: Table 20; read-out: pKi or IC50 (converted); cited from earlier work
GSK-3 alpha = GSK-3 alpha (Homo sapiens, UniProt P49840); conditions: cited from earlier work
[2] = Perilymph Conc. listed for agents (Tables 14-25)
EZH2 [3] = target: T2, EZH2 (Homo sapiens, UniProt Q15910); conditions: Table 19; cited from earlier work
EZH2 [4] = target: T2, EZH2; conditions: Table 19, EZH2; read-out: pKi or IC50 (converted); cited from earlier work
KDM [5] = conditions: Table 21; cited from earlier work
KDM [6] = conditions: cited from earlier work
Lgr5+ cells = test: Lgr5+ Assay (Lgr5+ cell assay in vitro); type: cell-based
[7] = cited from earlier work
[8] = Human In Vivo Conc listed for agents
DOT1L [9] = target: T1, DOT1L; conditions: Table 20; cited from earlier work
HDAC = conditions: Mechanism HDAC Inhib 1, 2, 3, 8; cited from earlier work
TAZ = conditions: Table 22; cited from earlier work
MAO B = target: T3, MAO B (Homo sapiens, UniProt P27338); conditions: Table 18, MAO B (second value or marked B); read-out: Select MAOs A and B; cited from earlier work
T3 sequence (P27338 1-520): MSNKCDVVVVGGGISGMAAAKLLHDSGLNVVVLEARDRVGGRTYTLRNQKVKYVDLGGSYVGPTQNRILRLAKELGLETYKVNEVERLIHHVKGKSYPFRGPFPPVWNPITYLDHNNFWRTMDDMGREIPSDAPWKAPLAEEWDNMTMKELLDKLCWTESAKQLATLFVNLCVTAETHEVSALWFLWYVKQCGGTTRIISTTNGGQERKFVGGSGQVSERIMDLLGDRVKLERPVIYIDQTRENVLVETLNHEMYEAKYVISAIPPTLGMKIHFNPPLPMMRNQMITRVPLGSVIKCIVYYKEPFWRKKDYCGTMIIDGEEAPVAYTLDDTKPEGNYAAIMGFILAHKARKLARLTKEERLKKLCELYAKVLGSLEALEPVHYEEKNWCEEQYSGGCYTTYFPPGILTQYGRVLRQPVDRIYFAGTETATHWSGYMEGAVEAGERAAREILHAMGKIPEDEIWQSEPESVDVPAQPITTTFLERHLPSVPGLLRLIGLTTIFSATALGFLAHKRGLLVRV

MAO A = target: T4, MAO A (Homo sapiens, UniProt P21397); conditions: Table 18, MAO A (first value or marked A); read-out: Select MAOs A and B; cited from earlier work
T4 sequence (P21397 1-527): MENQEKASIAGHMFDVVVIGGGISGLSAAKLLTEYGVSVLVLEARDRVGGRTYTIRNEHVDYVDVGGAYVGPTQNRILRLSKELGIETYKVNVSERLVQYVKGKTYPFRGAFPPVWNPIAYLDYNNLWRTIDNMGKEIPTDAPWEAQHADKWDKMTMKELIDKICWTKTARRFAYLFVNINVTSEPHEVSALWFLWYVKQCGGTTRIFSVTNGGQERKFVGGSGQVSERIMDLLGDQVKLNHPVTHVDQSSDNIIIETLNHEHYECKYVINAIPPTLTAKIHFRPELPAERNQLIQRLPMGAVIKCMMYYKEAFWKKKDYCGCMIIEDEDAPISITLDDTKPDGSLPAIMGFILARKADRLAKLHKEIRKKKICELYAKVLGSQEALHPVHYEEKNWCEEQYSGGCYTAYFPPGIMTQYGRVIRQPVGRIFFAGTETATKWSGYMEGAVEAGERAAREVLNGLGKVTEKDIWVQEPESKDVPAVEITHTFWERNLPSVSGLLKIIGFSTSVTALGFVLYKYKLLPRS

LSD1 [10] = target: T5, LSD1 (Homo sapiens, UniProt O60341); conditions: Table 18; cited from earlier work
EZH-1 = EZH-1 (Homo sapiens, UniProt Q92800); conditions: Table 19; read-out: Select vs EZH-1; cited from earlier work
LSD1 [11] = target: T5, LSD1; conditions: Table 18, LSD1; read-out: pKi or IC50 (converted); cited from earlier work
[12] = Table 14, listed concentration, no test described
[13] = Table 21, KDM 4, read-out: Select KDM 4
[14] = Table 20, listed concentration, no test described
[15] = HDAC inhibitor table, upper end of the wrapped range 100 uM-4 mM
[16] = HDAC inhibitor table, upper end of the wrapped range 100 uM-4 mM, no test described
[17] = Table 22, listed concentration, no test described

T1 sequence (Q8TEK3 whole entry, species assumed): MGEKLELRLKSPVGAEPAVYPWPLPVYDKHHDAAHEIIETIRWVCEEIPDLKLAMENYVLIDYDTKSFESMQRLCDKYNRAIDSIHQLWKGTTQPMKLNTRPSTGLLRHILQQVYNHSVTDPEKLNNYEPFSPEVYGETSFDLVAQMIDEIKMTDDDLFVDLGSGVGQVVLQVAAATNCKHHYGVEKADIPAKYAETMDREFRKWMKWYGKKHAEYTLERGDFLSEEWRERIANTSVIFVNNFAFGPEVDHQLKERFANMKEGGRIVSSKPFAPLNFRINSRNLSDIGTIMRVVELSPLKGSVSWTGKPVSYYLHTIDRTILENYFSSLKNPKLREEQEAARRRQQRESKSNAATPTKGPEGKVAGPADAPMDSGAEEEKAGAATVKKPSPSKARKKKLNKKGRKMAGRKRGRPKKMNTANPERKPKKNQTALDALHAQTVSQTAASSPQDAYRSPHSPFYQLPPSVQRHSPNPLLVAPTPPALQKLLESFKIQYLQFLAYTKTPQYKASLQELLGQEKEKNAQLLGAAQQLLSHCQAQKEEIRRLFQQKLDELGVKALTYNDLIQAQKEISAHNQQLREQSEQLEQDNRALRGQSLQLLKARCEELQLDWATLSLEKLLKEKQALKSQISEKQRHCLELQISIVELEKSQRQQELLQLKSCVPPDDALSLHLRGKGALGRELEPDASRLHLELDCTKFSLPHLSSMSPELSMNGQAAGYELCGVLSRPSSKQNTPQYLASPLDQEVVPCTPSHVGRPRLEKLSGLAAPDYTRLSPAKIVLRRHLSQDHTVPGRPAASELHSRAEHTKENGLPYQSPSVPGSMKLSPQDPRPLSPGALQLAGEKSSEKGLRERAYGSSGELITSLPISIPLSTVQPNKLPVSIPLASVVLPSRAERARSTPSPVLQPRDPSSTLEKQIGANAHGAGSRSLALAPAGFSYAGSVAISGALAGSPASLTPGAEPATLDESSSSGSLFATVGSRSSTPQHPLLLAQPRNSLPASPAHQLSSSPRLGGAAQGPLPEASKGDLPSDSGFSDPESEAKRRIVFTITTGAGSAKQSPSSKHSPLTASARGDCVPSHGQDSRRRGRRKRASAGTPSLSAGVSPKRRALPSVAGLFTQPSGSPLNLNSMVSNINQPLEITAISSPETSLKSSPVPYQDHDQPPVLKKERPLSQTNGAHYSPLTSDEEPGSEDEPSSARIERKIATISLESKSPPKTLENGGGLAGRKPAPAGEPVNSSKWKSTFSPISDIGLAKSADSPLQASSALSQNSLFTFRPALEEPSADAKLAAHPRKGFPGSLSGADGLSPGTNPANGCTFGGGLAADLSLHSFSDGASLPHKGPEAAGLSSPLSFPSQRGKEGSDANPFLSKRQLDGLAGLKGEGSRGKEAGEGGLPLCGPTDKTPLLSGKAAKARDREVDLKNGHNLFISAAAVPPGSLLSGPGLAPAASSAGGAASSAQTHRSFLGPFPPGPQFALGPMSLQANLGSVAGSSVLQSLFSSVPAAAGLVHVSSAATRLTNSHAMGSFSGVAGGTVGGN
T2 sequence (Q15910 whole entry, species assumed): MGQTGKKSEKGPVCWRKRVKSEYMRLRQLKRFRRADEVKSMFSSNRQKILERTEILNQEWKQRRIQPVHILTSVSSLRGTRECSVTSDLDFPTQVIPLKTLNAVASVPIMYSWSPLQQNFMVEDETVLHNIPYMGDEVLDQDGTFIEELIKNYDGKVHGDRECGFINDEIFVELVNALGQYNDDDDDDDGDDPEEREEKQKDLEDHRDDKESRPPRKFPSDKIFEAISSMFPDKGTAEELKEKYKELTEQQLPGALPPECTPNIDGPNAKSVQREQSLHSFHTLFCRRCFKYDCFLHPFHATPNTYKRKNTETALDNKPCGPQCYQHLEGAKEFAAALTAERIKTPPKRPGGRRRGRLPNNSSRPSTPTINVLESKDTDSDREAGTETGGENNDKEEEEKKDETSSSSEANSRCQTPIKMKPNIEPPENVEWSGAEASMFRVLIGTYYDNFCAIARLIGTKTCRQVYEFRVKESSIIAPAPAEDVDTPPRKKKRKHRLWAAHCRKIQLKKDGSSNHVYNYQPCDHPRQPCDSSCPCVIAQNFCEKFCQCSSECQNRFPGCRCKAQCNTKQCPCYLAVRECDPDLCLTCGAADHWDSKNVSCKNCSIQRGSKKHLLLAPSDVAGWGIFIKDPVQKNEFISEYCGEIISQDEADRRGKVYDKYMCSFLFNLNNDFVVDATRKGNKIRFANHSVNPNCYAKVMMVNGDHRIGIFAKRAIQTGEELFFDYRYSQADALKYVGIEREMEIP
T2 sequence (O75530 whole entry partner, species assumed): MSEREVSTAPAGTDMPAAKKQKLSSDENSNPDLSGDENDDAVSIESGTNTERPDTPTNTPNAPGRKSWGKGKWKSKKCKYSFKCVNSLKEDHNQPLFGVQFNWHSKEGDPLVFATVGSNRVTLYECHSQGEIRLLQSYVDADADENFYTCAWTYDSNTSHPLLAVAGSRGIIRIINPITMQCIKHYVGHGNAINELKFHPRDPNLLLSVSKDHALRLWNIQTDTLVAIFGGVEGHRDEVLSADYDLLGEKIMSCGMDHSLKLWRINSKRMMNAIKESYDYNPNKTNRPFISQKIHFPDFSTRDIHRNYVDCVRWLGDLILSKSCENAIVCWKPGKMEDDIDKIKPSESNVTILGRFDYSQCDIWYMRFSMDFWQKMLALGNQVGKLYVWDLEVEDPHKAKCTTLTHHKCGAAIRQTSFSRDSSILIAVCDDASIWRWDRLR
T2 sequence (Q15022 whole entry partner, species assumed): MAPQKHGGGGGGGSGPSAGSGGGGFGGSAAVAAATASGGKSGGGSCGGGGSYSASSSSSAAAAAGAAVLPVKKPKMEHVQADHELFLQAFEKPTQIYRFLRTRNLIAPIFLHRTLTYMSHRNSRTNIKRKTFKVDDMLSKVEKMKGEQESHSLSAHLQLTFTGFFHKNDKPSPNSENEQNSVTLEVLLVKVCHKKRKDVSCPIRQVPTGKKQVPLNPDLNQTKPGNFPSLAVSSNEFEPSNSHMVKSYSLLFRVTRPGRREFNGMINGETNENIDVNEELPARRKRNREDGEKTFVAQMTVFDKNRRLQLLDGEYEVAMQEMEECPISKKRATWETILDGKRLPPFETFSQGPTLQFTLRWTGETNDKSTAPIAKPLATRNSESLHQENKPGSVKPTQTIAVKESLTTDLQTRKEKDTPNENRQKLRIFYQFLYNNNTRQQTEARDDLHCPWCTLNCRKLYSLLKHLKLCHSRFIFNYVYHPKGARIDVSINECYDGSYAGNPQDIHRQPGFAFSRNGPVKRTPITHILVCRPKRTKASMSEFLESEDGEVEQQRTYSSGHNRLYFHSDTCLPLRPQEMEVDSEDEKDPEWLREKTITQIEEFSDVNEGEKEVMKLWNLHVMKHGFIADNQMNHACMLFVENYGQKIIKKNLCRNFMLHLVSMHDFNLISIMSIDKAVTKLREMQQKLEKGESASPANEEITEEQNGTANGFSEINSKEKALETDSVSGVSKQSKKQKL
Sequence of GSK-3 alpha (P49840 whole entry): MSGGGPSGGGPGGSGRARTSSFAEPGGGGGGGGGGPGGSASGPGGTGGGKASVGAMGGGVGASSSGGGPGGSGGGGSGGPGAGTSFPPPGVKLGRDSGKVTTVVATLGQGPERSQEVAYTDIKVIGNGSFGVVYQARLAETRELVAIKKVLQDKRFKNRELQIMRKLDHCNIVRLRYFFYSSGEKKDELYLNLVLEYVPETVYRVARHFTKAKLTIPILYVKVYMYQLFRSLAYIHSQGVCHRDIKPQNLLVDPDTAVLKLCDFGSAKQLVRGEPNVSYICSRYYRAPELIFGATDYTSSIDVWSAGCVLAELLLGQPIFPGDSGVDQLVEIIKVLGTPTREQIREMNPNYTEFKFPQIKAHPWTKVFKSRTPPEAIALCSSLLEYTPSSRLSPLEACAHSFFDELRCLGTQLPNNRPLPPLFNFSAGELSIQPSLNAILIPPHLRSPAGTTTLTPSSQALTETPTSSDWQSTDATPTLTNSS
Sequence of EZH-1 (Q92800 whole entry, species assumed): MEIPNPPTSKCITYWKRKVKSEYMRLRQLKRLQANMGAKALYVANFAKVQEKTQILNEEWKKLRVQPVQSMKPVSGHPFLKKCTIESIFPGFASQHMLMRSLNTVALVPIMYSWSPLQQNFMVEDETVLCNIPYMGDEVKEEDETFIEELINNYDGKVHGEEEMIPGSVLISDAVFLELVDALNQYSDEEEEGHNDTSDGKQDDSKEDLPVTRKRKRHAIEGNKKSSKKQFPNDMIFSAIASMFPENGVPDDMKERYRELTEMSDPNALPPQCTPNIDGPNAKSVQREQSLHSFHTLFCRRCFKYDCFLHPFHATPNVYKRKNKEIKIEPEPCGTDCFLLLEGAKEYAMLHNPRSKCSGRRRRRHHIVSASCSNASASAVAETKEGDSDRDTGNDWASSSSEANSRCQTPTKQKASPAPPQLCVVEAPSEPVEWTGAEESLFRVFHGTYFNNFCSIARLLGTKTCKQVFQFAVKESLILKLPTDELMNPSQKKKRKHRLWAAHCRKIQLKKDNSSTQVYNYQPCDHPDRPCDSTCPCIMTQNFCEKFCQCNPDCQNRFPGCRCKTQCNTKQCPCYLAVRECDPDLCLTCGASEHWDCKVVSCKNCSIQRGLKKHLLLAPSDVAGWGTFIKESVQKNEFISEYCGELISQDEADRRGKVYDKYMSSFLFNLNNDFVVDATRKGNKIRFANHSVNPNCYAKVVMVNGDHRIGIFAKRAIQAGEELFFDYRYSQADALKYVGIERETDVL
Sequence of EZH-1 (O75530 whole entry partner, species assumed): as the sequence (O75530 whole entry partner, species assumed) above
Sequence of EZH-1 (Q15022 whole entry partner, species assumed): as the sequence (Q15022 whole entry partner, species assumed) above

Question: For Cc1ncccc1-c1c(Cl)sc2ccc(NC(=O)NCC(=O)NCCCN(C)[C@@H]3CCCN(c4ncnc5[nH]ccc45)C3)cc12 [Compound 7], which IC50 (DOT1L [1]) is on record?
Answer: < 1 nM

Question: With N#Cc1ccc2[nH]c(O)c(-c3ccc(CN4CCOCC4)cn3)c2c1 [AZD 1080] as the compound, how does the GSK-3 alpha (GSK-3 alpha) read?
Answer: 6.9 nM

Question: What about the “Perilymph Conc” value [2, 12] of the same compound?
Answer: 1 to 5 µM

Question: For Cc1cc(C)c(CNC(=O)c2cc(-c3ccc(N4CCN(C)CC4)nc3)cc3c2cnn3C(C)C)c(=O)[nH]1 [GSK926], which “Lit Cell Poten” value (EZH2 [3]) is on record?
Answer: 324 nM

Question: And the IC50 (EZH2 [4])?
Answer: 7.9 nM

Question: Which “Lit Cell” value (KDM [5]) does the source give for CC(C)c1c(-c2ccccc2)[nH]c2c(C#N)cnn2c1=O [CPI-455] here?
Answer: 0.09 µM

Question: And the IC50 (KDM [6]; [13])?
Answer: 41 nM

Question: For CCCc1cc(C)[nH]c(=O)c1CNC(=O)c1cc(-c2ccc(N3CCN(C(C)C)CC3)nc2)cc2c1cnn2C(C)C [UNCI 999], which “Lgr5+ Assay” value (Lgr5+ cells; Table 19, result in words) is on record?
Answer: Activity

Question: And the “Lit Cell Poten” value (EZH2 [3])?
Answer: 124 nM

Question: And the IC50 (EZH2 [4])?
Answer: 10 nM

Question: For Cc1ccc(C(=O)Nc2c[nH]nc2C(=O)NCCCOC(C)C)cn1 [GSK XXII], which “Lgr5+ Assay” value (Lgr5+ cells; Table 14) is on record?
Answer: 0.2 to 1 µM

Question: What about the GSK-3 alpha (GSK-3 alpha) of the same compound?
Answer: 2.3 nM

Question: What about the “Perilymph Conc” value [2, 12] of the same compound?
Answer: 0.2 to 1 µM

Question: Which “Human In Vivo Conc” value ([7]; Table 19) does the source give for CCN(c1cc(-c2ccc(CN3CCOCC3)cc2)cc(C(=O)NCc2c(C)cc(C)[nH]c2=O)c1C)C1CCOCC1 [Tazemetostat] here?
Answer: 100 to 800 ng/mL

Question: And the “Perilymph Conc” value ([2]; Table 19)?
Answer: 0.37 to 1.1 µM

Question: What about the “Human In Vivo Conc” value ([8]; Table 19, value in brackets, converted) of the same compound?
Answer: (200-1600 nM)

Question: Which “Lit Cell” value (KDM [5]) does the source give for O=C(O)CCNc1cc(N2CCc3ccccc3CC2)nc(-c2ccccn2)n1 [GSK-J1] here?
Answer: 50 µM

Question: For CC(C)N(CCCNC(=O)Nc1ccc(C(C)(C)C)cc1)C[C@H]1O[C@@H](n2cc(Br)c3c(N)ncnc32)[C@H](O)[C@@H]1O [SGC0946], which “Lit Cell” value (DOT1L [9]) is on record?
Answer: 10 nM

Question: What about the “Perilymph Conc” value [2, 14] of the same compound?
Answer: 0.6 to 5 µM

Question: What about the “Human In Vivo Conc” value ([8]; Table 20) of the same compound?
Answer: 0.1 to 5 µM

Question: Which “Lgr5+ Assay” value (Lgr5+ cells; [15]) does the source give for C#CCC(CCCCCC)C(=O)O (centres unmarked) [2-hexyl-4-pentynoic acid] here?
Answer: ≤ 4000 µM

Question: And the “Perilymph Conc” value [2, 16]?
Answer: ≤ 4000 µM

Question: What about the “HDAC Potenc” value (HDAC) of the same compound?
Answer: 13 µM

Question: For CC(C)N(C[C@H]1O[C@@H](n2cnc3c(N)ncnc32)[C@H](O)[C@@H]1O)[C@H]1C[C@@H](CCc2nc3cc(C(C)(C)C)ccc3[nH]2)C1 [Pinometostat (EPZ-5676)], which “Lit Cell” value (DOT1L [9]) is on record?
Answer: 2.7 nM

Question: And the “Perilymph Conc” value [2, 14]?
Answer: 0.1 to 10 µM

Question: And the “Human In Vivo Conc” value ([8]; Table 20)?
Answer: (1-10 uM

Question: Which “Lgr5+ Assay” value (Lgr5+ cells; Table 20) does the source give for CC(C)N(CCCNC(=O)Nc1ccc(C(C)(C)C)cc1)C[C@H]1O[C@@H](n2ccc3c(N)ncnc32)[C@H](O)[C@@H]1O [EPZ004777] here?
Answer: 0.6 to 45 µM

Question: And the “Perilymph Conc” value [2, 14]?
Answer: 0.6 to 45 µM

Question: And the “Human In Vivo Conc” value ([8]; Table 20)?
Answer: 0.1 to 45 µM

Question: For C=CCNc1nc(N)c(C(=O)c2ccc(F)s2)s1 [TT10], which “Lit Cell” value (TAZ) is on record?
Answer: 1 µM

Question: What about the “Lgr5+ Assay” value (Lgr5+ cells; Table 22) of the same compound?
Answer: 1 to 10 µM

Question: And the “Perilymph Conc” value [2, 17]?
Answer: 1 to 10 µM

Question: For Cn1cc(C(=O)Nc2ccc([C@@H]3C[C@H]3NCC3CC3)cc2)cn1 [Compound T-3775440], which IC50 (MAO B) is on record?
Answer: 17000 nM

Question: And the IC50 (MAO A)?
Answer: 110000 nM

Question: For N[C@H]1CC[C@H](N[C@@H]2C[C@H]2c2ccccc2)CC1 (relative stereo) [ORY-1001], which “Literat. Cell” value (LSD1 [10]) is on record?
Answer: 0.5 to 3 nM

Question: What about the IC50 (MAO A) of the same compound?
Answer: > 100000 nM

Question: Which “Human In Vivo Conc” value ([7]; Table 19) does the source give for COc1cc(C)[nH]c(=O)c1CN1CCc2c(Cl)cc([C@H](OC)C3COC3)c(Cl)c2C1=O [PF-06821497] here?
Answer: 0.005 to 0.05 µM

Question: What about the “Lit Cell Poten” value (EZH2 [3]) of the same compound?
Answer: 4 to 6 nM

Question: And the IC50 (EZH-1)?
Answer: 70 nM

Question: And the IC50 (EZH2 [4])?
Answer: < 1 nM

Question: What about the “Perilymph Conc” value ([2]; Table 19) of the same compound?
Answer: 0.001 to 0.1 µM

Question: With CNc1ccnc(Nc2ccc3cc(C)n(-c4ccccc4Oc4cnc5c(c4)ncn5C)c3c2)n1 [Compound 13] as the compound, how does the IC50 (DOT1L [1]) read?
Answer: 0.4 nM

Question: What does the source list for NNCCc1ccccc1 [Phenelzine sulfate]?
Answer: Literat. Cell (LSD1 [10]): 900 nM; Cmax ([8]; human, plasma, Table 18, value in brackets, converted): 73 to 440 nM

Question: With CPI-169 as the compound, how does the “Human In Vivo Conc” value ([7]; Table 19) read?
Answer: 1 to 10 µM

Question: And the IC50 (EZH-1)?
Answer: 6 nM

Question: What about the “Perilymph Conc” value ([2]; Table 19) of the same compound?
Answer: 1 to 10 µM

Question: For CCCCc1nc2cc(-c3cccnc3)c(C)nc2n1Cc1ccc(-c2ccccc2-c2nn[nH]n2)cc1 [TM-25659], which “Lit Cell” value (TAZ) is on record?
Answer: 10 to 100 µM

Question: And the “Lgr5+ Assay” value (Lgr5+ cells; Table 22)?
Answer: 10 to 100 µM

Question: And the “Perilymph Conc” value [2, 17]?
Answer: 10 to 100 µM

Question: Which “Lgr5+ Assay” value (Lgr5+ cells; [15]) does the source give for O=C(O)CCCc1ccccc1 [Na phenylbutyrate] here?
Answer: ≤ 4000 µM

Question: What about the “Perilymph Conc” value [2, 16] of the same compound?
Answer: ≤ 4000 µM

Question: What about the “HDAC Potenc” value (HDAC) of the same compound?
Answer: 9 to 16 µM

Question: With Cc1ccc(-c2ncc(OC[C@@H]3CCNC3)cc2-c2ccc(C#N)cc2)cc1 [GSK-354] as the compound, how does the IC50 (LSD1 [11]) read?
Answer: 29 to 80 nM

Question: And the IC50 (MAO B)?
Answer: 19000 nM

Question: What about the “Literat. Cell” value (LSD1 [10]) of the same compound?
Answer: 1300 nM

Question: For N#Cc1c2c(c3nncn3c1NCc1ccco1)CN(Cc1ccccc1)CC2 [EED162], which “Lit Cell Poten” value (EZH2 [3]) is on record?
Answer: 80 nM

Question: What about the IC50 (EZH2 [4]) of the same compound?
Answer: 30 nM

Question: Which results are given for O=C(O)CCN(O)C(=O)CCCCCCCCC1CC1 [TC-E5002]?
Answer: Human In Vivo Conc ([7]; Table 21): 0.12 to 10 µM; Lgr5+ Assay (Lgr5+ cells; Table 21): 0.12 to 10 µM; Lit Cell (KDM [5]): 1640 µM; IC50 (KDM [6]; [13]): 83000 nM; IC50 (KDM [6]; Table 21, KDM 5, read-out: Select KDM 5): 55000 nM; IC50 (KDM [6]; Table 21, KDM 6, read-out: Select KDM 6): > 100000 nM; Perilymph Conc ([2]; Table 21): 0.12 to 10 µM
